SMILES strings stand for the structures.

The target of the assay is T1, 5-HT1A receptor (Rattus norvegicus, UniProt P19327).
T1 construct: rat hippocampal membrane homogenate; from tissue; host or cells: rat hippocampal membrane homogenate
T1 sequence (P19327 1-422): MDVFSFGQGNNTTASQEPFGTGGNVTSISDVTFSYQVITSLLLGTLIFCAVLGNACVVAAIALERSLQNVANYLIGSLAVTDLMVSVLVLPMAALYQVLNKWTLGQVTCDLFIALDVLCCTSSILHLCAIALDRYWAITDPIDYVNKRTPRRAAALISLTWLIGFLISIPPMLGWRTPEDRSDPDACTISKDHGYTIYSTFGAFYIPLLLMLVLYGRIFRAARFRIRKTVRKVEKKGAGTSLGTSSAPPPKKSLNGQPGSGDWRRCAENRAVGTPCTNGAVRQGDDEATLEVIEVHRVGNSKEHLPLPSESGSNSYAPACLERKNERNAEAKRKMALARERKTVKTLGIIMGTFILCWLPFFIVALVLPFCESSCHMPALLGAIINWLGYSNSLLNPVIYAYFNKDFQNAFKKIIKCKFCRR
In words: 5-HT1A receptor binding activity in rat hippocampal membrane homogenate. The procedure:
The compounds of the invention were tested for 5-HT1A receptor binding activity in rat hippocampal membrane homogenate by the method of B. S. Alexander and M. D. Wood, J Pharm Pharmacol, 1988, 40, 888-891.
The compound `COc1ccccc1N1CCN(C[C@H](c2ccccn2)[C@H](O)C2CCCCC2)CC1` (relative stereo) [Example 1a, R*, R*-1-(2Methoxyphenyl)-4-[(2-propan-(2-pyridinyl)-3-cyclohexyl)-3-ol]piperazine] gave an IC50 of 4 nM. `COc1ccccc1N1CCN(C[C@H](c2ccccn2)[C@@H](O)C2CCCCC2)CC1` (relative stereo) [Example 1b, R*, S*-1-(2-Methoxyphenyl)-4-[(2-propan-(2-pyridinyl)-3-cyclohexyl)-3-ol]piperazine] registered an IC50 of 4.3 nM. As to `COc1ccccc1N1CCN(CC[C@H](c2ccccn2)[C@H](O)C2CCCCC2)CC1` (relative stereo) [Example 2a, R*,R*-1-(2-Methoxyphenyl)-4-[3-butan-(2-pyridinyl)-4-cyclohexyl)-4-ol]piperazine], the IC50 stood at 2 nM.

With `COc1ccccc1N1CCN(CC[C@H](c2ccccn2)[C@@H](O)C2CCCCC2)CC1` (relative stereo) [Example 2b, R*,S*-1-(2-Methoxyphenyl)-4-[3-butan-(2-pyridinyl)-4-cyclohexyl)-4-ol]piperazine], the IC50 amounted to 1.8 nM. The figure for `COc1ccccc1N1CCN(CCC(c2ccccn2)[S+]([O-])C2CCCCC2)CC1` (single isomer, unassigned) [Example 7, 1-(2-Methoxyphenyl)-4-[3-(cyclohexylsulphoxy)-3-(2-pyridinyl)propyl]piperazine] is 15 nM. In turn, `COc1ccccc1N1CCN(CCC(C(=O)C2CCCCC2)c2ccccn2)CC1` (centres unmarked) [Example 3] registered a concentration for half-maximal inhibition (IC50) of 2.6 nM. The figure for `COc1ccccc1N1CCN(CCC(CC2CCCCC2)c2ccccn2)CC1` (centres unmarked) [Example 4] is 1.6 nM. `COc1ccccc1N1CCN(CCC(SC2CCCCC2)c2ccccn2)CC1` (centres unmarked) [Example 6, 1-(2-Methoxyphenyl)-4-[3-(cyclohexylthio)-3-(2-pyridinyl)propyl]piperazine]: the IC50 worked out at 4.25 nM.

A word on the IC50: it is the concentration that gives 50% inhibition. A lower IC50 goes with higher potency.

Values taken from patent US5693642A, “Piperazine derivatives as 5-HT1A ligands” (John Wyeth & Brother Ltd., priority 1993, dated 1997).
